In patent US20190060463A1, “BRIDGED POLYETHYLENE GLYCOL-ALIPHATIC POLYESTER BLOCK COPOLYMER, PREPARATION METHOD FOR SAME, INTERMEDIATE OF SAME, AND USES THEREOF” (University Of Science And Technology Of China, priority 2015, published 2019):

System: MDA-MB-231 in situ breast cancer mouse tumor model
Experiment: Inhibition of breast cancer growth by nanoparticles carrying docetaxel
Type: in vivo, nude mouse
Settings: 70 μg DTXL (3.5 mg/kg), 3 administrations, period 7 days
Method: In this Example, a MDA-MB-231 in situ breast cancer mouse tumor model was used. The specific process of establishing the model was as follows. MDA-MB-231 cells were cultured in a DMEM complete medium. The cells were cultured with a serum-free DMEM 6 hours before the model was established, and digested with trypsin. The cells were collected by centrifugation at 1000 rpm, and resuspended with PBS to allow the density of the cells to be up to 2×10^7cells/mL. 100 μL of the cell suspension was injected to the second right breast of a nude mouse. In this Example, mPEG113-b-PDLLA72, mPEG113-Dlinkm-PDLLA70, and mPEG113-Dlink-PDLLA75 were used to produce drug loaded nanoparticles.
Nude mice, which were injected with breast cancer cells in situ, were bred in a SPF-level animal room for about 7 days, and visible tumors may be formed. The volume of the tumor was calculated according to the equation: V=0.5*a*b*b, wherein a refers to a longer diameter of the tumor and b refers to a shorter diameter of the tumor. When the tumor volume of the nude mouse reaches about 60 mm^3, treatment was performed. 20 g nude mice inoculated with MDA-MB-231 tumor were divided into 5 groups according to the following manners of treatment, and each group has 5 nude mice. […] A treatment period was 7 days and 3 administrations were performed. The tumor volume was measured every 3 days. […]

CC(=O)O[C@@]12CO[C@@H]1C[C@H](O)[C@@]1(C)C(=O)[C@H](O)C3=C(C)[C@@H](OC(=O)[C@H](O)[C@@H](NC(=O)OC(C)(C)C)c4ccccc4)C[C@@](O)([C@@H](OC(=O)c4ccccc4)[C@H]21)C3(C)C [DTXL, docetaxel]
inhibitory effect on tumor growth: no inhibitory effect
